Assay results reported in ChEMBL document CHEMBL1201862, “PubChem BioAssay data set” (2004).
The source made the active and inactive calls.

Columns and labels:
[1] = StAR promoter reporter inhibition counter-screen, dose response, counter-screen for LRH-1 inverse agonist project, cell-based, luminescence, luciferase reporter (AID 651969); format: functional
[2] = cells; format: functional, cell-based
[3] = molecular target: Steroidogenic factor 1 (Homo sapiens, UniProt Q13285); experiment: Counterscreen for inverse agonists of the liver receptor homolog-1 (LRH-1; NR5A2): Luminescence-based cell-based high throughput dose response assay to identify inverse agonists of the Steroidogenic Factor 1 Nuclear Receptor (SF1; NR5A1).; format: functional
[4] = cells; format: functional, cell-based; remark: listed apart in the source
[5] = molecular target: Nuclear receptor subfamily 5 group A member 2 (Homo sapiens, UniProt O00482); format: functional, cell-based;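 also: HEK293T cells transfected with LRH-1 and a StAR promoter luciferase reporter; potency for inhibitors that lower LRH-1 driven reporter light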
[6] = molecular target: T1, Small ubiquitin-related modifier 1 (Homo sapiens, UniProt P63165); experiment: inhibitors of SUMO1 peptide binding, dose response, biochemical, fluorescence polarization, uHTS hits (AID 624382); format: functional; conditions: read-out: IC50_Mean
[7] = molecular target: T2, Carboxy-terminal domain RNA polymerase II polypeptide A small phosphatase 1 (Homo sapiens, UniProt Q9GZU7); experiment: inhibitors of CTDSP1, concentration-response testing, biochemical assay, absorbance-based, actives from ultra-high-throughput screening (AID 540297); format: functional
T2 sequence (Q9GZU7 whole entry): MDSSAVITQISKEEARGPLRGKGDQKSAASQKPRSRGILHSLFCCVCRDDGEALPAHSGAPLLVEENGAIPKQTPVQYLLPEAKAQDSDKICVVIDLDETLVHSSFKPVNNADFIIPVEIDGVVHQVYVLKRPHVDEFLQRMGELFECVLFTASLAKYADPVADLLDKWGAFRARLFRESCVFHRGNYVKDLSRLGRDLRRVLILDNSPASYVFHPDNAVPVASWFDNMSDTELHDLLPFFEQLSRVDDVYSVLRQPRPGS

[8] = molecular target: T1, Small ubiquitin-related modifier 1; experiment: inhibitors of SUMO1 partner interactions, dose response, biochemical, FRET (AID 624383); format: functional; conditions: read-out: IC50_Mean
[9] = molecular target: T3, Probable nicotinate-nucleotide adenylyltransferase (Staphylococcus aureus (strain N315), UniProt P65502); format: functional, Staphylococcus aureus subsp. aureus N315;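 as to IC50 Mean: confirmatory dose-response retesting of NadD inhibitor hits first found in an ultra-high-throughput screen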
[10] = molecular target: T3, Probable nicotinate-nucleotide adenylyltransferase; format: functional, Staphylococcus aureus subsp. aureus N315; conditions: read-out: IC50_Mean
[11] = molecular target: T4, Small ubiquitin-related modifier 2 (Homo sapiens, UniProt P61956); experiment: SUMO2–SIM peptide binding inhibitors, dose response, selectivity assay for SUMO1 interaction inhibitor project, biochemical, fluorescence polarization, uHTS hits (AID 624385); format: functional; conditions: read-out: IC50_Mean
[12] = molecular target: T4, Small ubiquitin-related modifier 2; experiment: inhibitors of SUMO2 protein-protein interaction, dose response, selectivity assay for SUMO1 interaction inhibitor project, biochemical, FRET, human SUMO2, uHTS hits (AID 624384); format: functional; conditions: read-out: IC50_Mean
[13] = molecular target: T5, Protein RecA (Mycobacterium tuberculosis, UniProt P9WHJ3); experiment: Fluorescence Cell-Free Homogeneous Dose Retest to Identify Inhibitors of RecA-Intein Splicing Activity. [Related pubchem assays (depositor defined):AID2097, AID2223, AID489010, AID492950]; format: functional
T5 sequence (P9WHJ3 whole entry): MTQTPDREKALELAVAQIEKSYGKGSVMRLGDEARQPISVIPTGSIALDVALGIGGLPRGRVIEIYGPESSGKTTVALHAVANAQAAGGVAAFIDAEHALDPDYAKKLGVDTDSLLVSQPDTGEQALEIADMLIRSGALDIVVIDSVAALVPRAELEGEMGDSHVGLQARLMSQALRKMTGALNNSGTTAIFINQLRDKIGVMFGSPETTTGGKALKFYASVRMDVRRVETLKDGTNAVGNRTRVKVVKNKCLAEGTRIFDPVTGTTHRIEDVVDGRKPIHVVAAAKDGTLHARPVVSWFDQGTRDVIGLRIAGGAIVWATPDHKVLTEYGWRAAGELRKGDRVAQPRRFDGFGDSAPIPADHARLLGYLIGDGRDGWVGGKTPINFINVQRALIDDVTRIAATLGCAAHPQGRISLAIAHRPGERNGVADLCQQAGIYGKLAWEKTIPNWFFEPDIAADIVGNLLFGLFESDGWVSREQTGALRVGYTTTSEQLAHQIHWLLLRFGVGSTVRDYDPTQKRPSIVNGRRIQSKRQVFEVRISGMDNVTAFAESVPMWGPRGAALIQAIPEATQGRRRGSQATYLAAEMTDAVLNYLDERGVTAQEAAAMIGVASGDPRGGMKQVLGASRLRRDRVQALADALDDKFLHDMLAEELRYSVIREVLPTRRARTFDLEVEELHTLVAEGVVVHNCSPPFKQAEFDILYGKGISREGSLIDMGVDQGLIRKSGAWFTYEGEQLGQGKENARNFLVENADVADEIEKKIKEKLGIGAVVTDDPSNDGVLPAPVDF

[14] = molecular target: T6, Heat shock factor protein 1 (Mus musculus, UniProt P38532); experiment: HSF1 potentiators in luciferase reporter cells, confirmation, cell-based, NIH3T3, luminescence, dose retest (AID 435004); format: functional;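 also: stress induced by proteasome inhibitor MG132 added 30 min after compound; luciferase reporter driven by HSF1 response element in NIH3T3 cells; actives raise luminescence as potentiators of the MG132 stress response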
T6 sequence (P38532 whole entry): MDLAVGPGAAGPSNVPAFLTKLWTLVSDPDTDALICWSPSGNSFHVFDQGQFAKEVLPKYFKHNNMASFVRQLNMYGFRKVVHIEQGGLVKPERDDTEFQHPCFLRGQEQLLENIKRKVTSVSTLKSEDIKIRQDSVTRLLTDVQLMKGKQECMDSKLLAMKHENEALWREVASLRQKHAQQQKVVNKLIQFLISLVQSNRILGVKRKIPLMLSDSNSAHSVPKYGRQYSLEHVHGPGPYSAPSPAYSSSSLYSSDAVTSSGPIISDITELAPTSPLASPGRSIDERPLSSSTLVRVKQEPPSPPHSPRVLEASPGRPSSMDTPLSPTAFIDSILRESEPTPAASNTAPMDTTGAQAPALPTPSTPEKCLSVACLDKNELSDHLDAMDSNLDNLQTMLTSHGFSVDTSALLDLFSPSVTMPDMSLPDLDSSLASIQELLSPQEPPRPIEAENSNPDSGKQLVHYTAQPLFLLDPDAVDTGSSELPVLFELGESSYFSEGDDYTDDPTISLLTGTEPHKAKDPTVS

[15] = Counterscreen for activators of the function of SWI/SNF related, matrix associated, actin dependent regulator of chromatin, subfamily a, member 2 (SMARCA2, BRM): Luminescence-based cell-based high throughput dose response assay to identify non-selective compounds using the VP16 reporter assay.; format: functional
[16] = molecular target: T7, Polyadenylate-binding protein 1 (Homo sapiens, UniProt P11940); experiment: PABP1 MLLE–PAM2 binding inhibitor potency, dose response, biochemical, fluorescence polarization, FITC-PAM2 peptide (AID 602259); format: functional; conditions: read-out: IC50_Mean
[17] = molecular target: Melanocortin receptor 4 (Homo sapiens, UniProt P32245); experiment: MC4R antagonist potency on cAMP, dose response, cell-based, TR-FRET, biased antagonists (AID 602298); format: functional;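 also: antagonist potency against agonist-stimulated cAMP production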
[18] = molecular target: SWI/SNF-related matrix-associated actin-dependent regulator of chromatin subfamily A member 2 (Homo sapiens, UniProt P51531); experiment: Luminescence-based cell-based high throughput dose response assay to identify activators of the function of SWI/SNF related, matrix associated, actin dependent regulator of chromatin, subfamily a, member 2 (SMARCA2, BRM).; format: functional
[19] = molecular target: T7, Polyadenylate-binding protein 1; experiment: PABP1 MLLE–PAM2 interaction inhibitors, dose response, miRNA deadenylation inhibitor project, biochemical, fluorescence polarization, Cy5-PAM2 peptide, secondary (AID 602260); format: functional; conditions: read-out: IC50_Mean
[20] = nonselective inhibitors of cellular cAMP signaling, dose response, counter-screen for MC4R biased antagonist project, cell-based, TR-FRET cAMP detection (AID 602305); format: functional;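 also: U2OS cells stimulated with forskolin near its EC80 as the cAMP inducer; potency is for inhibition of forskolin-stimulated cAMP signaling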
[21] = molecular target: T8, Replicative DNA helicase DnaB (Mycobacterium tuberculosis, UniProt P9WMR3); experiment: DnaB intein splicing inhibitors, dose response, biochemical, cell-free fluorescence (AID 449749); format: functional
T8 sequence (P9WMR3 whole entry): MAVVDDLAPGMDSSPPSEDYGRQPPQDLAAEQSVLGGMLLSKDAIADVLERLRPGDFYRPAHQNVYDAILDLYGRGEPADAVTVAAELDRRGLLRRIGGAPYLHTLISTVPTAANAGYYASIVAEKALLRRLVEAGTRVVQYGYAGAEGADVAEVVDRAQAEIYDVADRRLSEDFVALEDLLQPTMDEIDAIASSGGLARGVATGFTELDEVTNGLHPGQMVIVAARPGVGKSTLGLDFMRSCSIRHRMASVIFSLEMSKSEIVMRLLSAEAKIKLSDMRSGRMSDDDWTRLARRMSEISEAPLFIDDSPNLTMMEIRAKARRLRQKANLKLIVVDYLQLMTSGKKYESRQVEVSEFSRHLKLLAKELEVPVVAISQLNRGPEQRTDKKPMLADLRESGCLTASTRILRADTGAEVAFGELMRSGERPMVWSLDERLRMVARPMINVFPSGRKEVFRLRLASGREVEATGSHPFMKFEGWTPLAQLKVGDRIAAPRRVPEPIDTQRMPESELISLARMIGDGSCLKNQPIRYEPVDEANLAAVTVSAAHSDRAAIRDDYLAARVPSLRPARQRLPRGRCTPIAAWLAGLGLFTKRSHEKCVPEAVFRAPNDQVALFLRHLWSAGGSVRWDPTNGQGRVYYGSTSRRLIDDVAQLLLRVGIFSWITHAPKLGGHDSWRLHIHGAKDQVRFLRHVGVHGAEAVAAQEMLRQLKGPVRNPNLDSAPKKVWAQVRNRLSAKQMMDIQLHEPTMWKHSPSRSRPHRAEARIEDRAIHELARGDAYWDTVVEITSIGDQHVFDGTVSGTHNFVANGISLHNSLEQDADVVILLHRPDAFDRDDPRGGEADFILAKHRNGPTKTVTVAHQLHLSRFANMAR

[22] = molecular target: T9, Nuclear receptor subfamily 0 group B member 1 (Homo sapiens, UniProt P51843); format: functional, cell-based;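 also: HEK293T cells transfected with SF-1 and DAX-1 plus StAR promoter luciferase reporter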
T9 sequence (P51843 whole entry): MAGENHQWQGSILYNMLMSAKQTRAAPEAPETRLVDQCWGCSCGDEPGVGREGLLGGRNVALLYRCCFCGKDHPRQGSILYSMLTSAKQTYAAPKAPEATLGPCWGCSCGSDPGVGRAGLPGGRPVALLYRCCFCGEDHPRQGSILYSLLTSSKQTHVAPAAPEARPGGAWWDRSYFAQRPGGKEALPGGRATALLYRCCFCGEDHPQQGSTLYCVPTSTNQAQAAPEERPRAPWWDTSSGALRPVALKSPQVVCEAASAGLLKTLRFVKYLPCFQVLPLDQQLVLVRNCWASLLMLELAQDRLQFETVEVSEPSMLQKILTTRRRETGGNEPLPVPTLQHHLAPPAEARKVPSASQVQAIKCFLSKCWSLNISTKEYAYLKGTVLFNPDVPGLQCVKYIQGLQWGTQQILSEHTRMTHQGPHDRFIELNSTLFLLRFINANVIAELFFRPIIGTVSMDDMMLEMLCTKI

[23] = cells; format: functional, cell-based; remark: listed apart in the source

T7 sequence (P11940 whole entry): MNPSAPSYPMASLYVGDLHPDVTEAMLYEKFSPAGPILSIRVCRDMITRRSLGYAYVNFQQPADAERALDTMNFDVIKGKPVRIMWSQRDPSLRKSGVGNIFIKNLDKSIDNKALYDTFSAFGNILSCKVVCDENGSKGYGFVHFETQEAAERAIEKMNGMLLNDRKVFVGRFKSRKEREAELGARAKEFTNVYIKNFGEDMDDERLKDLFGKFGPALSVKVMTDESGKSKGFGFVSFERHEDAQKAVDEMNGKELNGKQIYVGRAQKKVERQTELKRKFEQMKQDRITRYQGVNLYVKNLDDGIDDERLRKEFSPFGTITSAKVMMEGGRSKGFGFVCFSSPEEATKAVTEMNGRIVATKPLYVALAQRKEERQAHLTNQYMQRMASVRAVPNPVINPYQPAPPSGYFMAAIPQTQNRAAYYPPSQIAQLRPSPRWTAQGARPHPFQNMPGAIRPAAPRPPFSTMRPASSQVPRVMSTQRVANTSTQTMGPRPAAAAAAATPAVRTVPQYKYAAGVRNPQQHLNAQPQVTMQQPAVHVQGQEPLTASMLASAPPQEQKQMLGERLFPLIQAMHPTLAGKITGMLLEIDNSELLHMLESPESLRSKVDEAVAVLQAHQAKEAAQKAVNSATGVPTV
T1 sequence (P63165 whole entry, the tested form may be a part): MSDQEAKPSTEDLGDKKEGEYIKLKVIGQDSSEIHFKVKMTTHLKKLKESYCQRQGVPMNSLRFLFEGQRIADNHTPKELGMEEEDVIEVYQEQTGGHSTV
T3 sequence (P65502 whole entry): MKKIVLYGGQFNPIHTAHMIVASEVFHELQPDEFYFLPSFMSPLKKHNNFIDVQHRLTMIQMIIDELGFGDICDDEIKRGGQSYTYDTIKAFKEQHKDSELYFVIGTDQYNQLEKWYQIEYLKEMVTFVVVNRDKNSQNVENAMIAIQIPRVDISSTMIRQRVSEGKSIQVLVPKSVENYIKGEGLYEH
T4 sequence (P61956 whole entry): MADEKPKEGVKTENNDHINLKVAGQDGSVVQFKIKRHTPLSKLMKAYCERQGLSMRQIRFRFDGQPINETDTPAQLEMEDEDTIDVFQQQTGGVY
Melanocortin receptor 4, sequence (P32245 whole entry): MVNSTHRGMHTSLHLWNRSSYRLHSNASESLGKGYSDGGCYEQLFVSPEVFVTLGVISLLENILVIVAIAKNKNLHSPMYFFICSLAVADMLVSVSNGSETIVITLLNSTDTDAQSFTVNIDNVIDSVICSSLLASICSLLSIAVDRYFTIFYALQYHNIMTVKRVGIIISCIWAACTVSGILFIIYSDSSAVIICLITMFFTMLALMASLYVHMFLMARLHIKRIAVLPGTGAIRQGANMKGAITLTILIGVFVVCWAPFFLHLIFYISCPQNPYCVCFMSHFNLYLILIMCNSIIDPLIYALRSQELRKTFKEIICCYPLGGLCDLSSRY
Nuclear receptor subfamily 5 group A member 2, sequence (O00482 whole entry): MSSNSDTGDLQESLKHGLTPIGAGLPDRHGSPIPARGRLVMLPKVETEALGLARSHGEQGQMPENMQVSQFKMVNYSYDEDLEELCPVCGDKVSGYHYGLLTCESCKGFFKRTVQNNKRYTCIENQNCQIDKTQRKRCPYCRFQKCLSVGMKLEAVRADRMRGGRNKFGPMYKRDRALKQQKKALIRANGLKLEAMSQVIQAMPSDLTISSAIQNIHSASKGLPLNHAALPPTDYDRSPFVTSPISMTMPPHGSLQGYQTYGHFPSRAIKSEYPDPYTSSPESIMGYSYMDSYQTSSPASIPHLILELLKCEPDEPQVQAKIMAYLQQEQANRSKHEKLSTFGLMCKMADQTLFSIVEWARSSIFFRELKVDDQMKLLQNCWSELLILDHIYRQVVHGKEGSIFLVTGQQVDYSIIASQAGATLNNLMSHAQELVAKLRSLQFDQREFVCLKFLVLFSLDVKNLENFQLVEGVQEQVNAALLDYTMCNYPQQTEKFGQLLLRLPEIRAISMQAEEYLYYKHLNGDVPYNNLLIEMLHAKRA
SWI/SNF-related matrix-associated actin-dependent regulator of chromatin subfamily A member 2, sequence (P51531 whole entry): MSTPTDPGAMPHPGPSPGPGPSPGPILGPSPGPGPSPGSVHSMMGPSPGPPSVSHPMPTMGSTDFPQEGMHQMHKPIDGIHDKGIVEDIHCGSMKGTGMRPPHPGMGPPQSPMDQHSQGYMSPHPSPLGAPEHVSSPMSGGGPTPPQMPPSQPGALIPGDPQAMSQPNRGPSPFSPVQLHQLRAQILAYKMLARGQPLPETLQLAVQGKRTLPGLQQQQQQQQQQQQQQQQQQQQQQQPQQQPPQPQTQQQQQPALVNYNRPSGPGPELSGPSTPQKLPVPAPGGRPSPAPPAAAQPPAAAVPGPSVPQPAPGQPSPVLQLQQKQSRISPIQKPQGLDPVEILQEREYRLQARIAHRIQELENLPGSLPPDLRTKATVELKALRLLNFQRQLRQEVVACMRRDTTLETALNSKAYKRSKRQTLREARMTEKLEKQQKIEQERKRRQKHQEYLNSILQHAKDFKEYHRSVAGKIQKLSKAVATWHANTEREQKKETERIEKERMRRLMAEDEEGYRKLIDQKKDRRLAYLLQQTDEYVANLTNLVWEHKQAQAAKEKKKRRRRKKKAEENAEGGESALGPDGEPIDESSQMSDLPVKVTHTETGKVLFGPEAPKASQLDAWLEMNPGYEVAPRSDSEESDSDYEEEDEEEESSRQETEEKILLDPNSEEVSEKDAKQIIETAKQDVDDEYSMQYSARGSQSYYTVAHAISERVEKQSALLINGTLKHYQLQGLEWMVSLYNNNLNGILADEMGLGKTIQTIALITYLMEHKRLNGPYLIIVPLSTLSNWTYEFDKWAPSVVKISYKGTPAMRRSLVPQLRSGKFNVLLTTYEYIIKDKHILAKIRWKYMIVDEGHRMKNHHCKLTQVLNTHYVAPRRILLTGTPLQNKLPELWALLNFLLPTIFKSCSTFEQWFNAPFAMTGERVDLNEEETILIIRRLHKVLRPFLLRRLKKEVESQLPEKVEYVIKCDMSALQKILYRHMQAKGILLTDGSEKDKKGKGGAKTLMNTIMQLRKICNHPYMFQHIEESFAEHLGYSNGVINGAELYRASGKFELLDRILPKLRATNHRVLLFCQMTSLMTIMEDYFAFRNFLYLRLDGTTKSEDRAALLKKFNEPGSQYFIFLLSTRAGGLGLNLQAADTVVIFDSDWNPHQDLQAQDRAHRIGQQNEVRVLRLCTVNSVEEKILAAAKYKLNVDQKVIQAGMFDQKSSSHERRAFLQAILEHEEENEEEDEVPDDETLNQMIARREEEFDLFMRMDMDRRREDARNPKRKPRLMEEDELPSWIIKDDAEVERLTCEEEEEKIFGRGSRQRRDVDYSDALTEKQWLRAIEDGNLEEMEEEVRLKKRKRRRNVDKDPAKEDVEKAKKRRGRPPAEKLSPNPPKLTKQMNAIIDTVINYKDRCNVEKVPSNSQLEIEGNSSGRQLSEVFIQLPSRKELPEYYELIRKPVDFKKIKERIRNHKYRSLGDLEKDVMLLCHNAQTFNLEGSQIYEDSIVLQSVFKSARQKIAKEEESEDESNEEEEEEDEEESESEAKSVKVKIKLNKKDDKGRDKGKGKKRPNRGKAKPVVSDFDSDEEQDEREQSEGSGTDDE
Steroidogenic factor 1, sequence (Q13285 whole entry): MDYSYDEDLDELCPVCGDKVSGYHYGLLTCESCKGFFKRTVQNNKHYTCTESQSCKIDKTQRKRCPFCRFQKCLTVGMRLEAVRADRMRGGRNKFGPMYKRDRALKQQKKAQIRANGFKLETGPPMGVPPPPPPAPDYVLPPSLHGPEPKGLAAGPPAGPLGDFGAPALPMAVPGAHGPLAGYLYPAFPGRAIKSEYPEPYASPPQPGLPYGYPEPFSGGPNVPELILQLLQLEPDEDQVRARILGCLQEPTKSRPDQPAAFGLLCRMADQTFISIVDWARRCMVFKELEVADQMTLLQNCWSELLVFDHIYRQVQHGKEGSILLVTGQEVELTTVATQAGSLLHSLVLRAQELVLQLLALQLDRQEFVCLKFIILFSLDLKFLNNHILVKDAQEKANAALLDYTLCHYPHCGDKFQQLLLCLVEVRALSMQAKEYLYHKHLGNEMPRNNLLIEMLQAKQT

Which results are given for `COc1ccc(NC(=O)CSc2[nH]cnc3nncc2-3)cc1`?
IC50 [1]: 35.9 µM (inactive); EC50 [2]: > 350 µM (not active); IC50 [3]: 1.73 µM (active); EC50 [4]: > 350 µM (not active); IC50 [5]: 1.37 µM (active)

Which IC50 [6] does the source give for `O=C1N=c2ccccc2=C1Nc1ccc(S(=O)(=O)Nc2nccs2)cc1` here?
The IC50 was 11 µM (active).

And the IC50 [7]?
The IC50 was 4.2 µM (active).

And the IC50 [8]?
The IC50 was 51 µM (inactive).

And the IC50 [9]?
Its IC50 is 5.32 µM (active).

What about the IC50 [10] of the same molecule?
Its IC50 is 15.5 µM (active).

And the IC50 [11]?
Its IC50 is 9.54 µM (active).

What about the IC50 [12] of the same molecule?
Its IC50 is 46.1 µM (inactive).

Which EC50 [13] does the source give for `CC(=O)Nc1cccc(NC(=O)CSc2ncc(C(=O)Nc3ccccc3)c(=O)n2C)c1` here?
The EC50 was 1.61 µM (active).

And the EC50 [14]?
Its EC50 is 12.8 µM (active).

And the EC50 [15]?
Its EC50 is > 91.1 µM (inactive).

What about the IC50 [16] of the same molecule?
The IC50 was > 66 µM (inactive).

And the IC50 [17]?
Its IC50 is > 64.6 µM (inactive).

What about the EC50 [18] of the same molecule?
Its EC50 is > 91.1 µM (inactive).

What about the IC50 [19] of the same molecule?
The IC50 was > 66 µM (inactive).

What about the IC50 [20] of the same molecule?
The IC50 was > 64.6 µM (inactive).

And the AC50 [21]?
The AC50 was 6.51 µM (active).

With `O=C(CCN1C(=O)/C(=C\C=C\c2ccccc2)SC1=S)Nc1cccc(C(=O)O)c1` as the molecule, how does the IC50 [22] read?
Its IC50 is > 67.5 µM (inactive).

What about the IC50 [7] of the same molecule?
The IC50 was 4.8 µM (active).

What about the IC50 [23] of the same molecule?
The IC50 was > 67.5 µM (inactive).
